# Reference: patent US20140005119A1, “COMPOSITIONS AND METHODS FOR INHIBITING THE ACTIVITY OF P110a MUTANT PROTEINS” (Case Western Reserve University, priority 2012, published 2014)
# Tested on: AKT phosphorylation
# Test: Immunoblot of AKT phosphorylation in cancer cell lines treated with stapled peptides
# Type: cell-based, human
# Set-up: AKT phosphorylation / AKT phosphorylation at both T308 and 5473 residues: dose or concentration left out as unconfirmed
# Protocol: FIGS. 3(A-M) illustrate: (A, B) Mapping peptides (P3, SEQ ID NO: 1; P4 SEQ ID NO: 2; P5, SEQ ID NO: 3; P6, SEQ ID NO: 4) derived from mutant p110α that inhibit interaction between IRS1 and p110α E545K. The indicated peptides were added into cell lysates made from the p110α E545K 3×FLAG KI cells. Cell lysates were immunoprecipitated with beads conjugated with anti-FLAG antibodies and then blotted with anti-IRS1 antibodies. (C) Immunoblots of cell lysates made from the p110α E545K 3×FLAG KI cells. Cell lysates were immunoprecipitated with beads conjugated with anti-FLAG antibodies and then blotted with the indicated antibodies. (D) Immunoblots of cell lysate of Myc-tagged IRS1 plasmid, which co-transfected an ABD domain deletion construct of the FLAG-tagged p110α E545K mutant (ΔABD), incubated with the indicated amount of stapled p110α mutant peptides, and then immunoprecipitated with anti-FLAG antibodies and blotted with the indicated antibodies. (J, K) Immunoblot and graph of purified recombinant p110α E545K mutant proteins mixed with the indicated components and quantified using an in vitro lipid kinase assay. (L, M) Immunoblots of the indicated cell lines serum-starved, stimulated with 1 μg/ml insulin for 30 min, and then treated with or without the indicated peptides. Cell lysates were blotted with the indicated antibodies. All error bars show mean±SEM. *p<0.05, **p<0.001, t test.
# FIG. 4(A-F) illustrate: (A) Schematic diagram of linear and stapled WT and mutant peptides derived from p110α (SEQ ID NOs: 5, 6, 7 and 8). (B) Immunoblots of cell lysates immunoprecipitated with beads conjugated with anti-FLAG antibodies and then blotted with the indicated antibodies. Linear or stapled WT and mutant peptide were added into culture medium of the p110α E545K 3×FLAG KI cells for 16 hr. (C) Immunoblots of cell lysates immunoprecipitated with anti-p110α antibodies and then blotted with the indicated antibodies. Vaco481 CRC cells were treated with the stapled mutant peptides at the indicated concentration. (D) Immunoblots of cell lysates blotted with the indicated antibodies. The indicated cell lines were treated with the stapled mutant peptide. (E) Immunoblots of cell lysates blotted with the indicated antibodies. The indicated cancer cell lines were treated or untreated with stapled WT or mutant peptide at […] for 2 hr. (F) Immunoblots of cell lysates were blotted with the indicated antibodies. The indicated cancer cell lines were treated with or without […] of stapled mutant peptide for 2 hr.
# Colorectal cancer (CRC) cell lines DLD1, HCT116, Vaco481 and genetically engineered CRC cell lines were maintained in McCoy's 5A medium containing 10% fetal bovine serum (FBS). Lung cancer cell line H460 and breast cancer cell line T47D were cultured in RPMI 1640 medium plus 10% of FBS. Breast cancer cell line MDA-MB361 was maintained in Leibovitz's L-15 medium with 20% FBS. Human embryonic kidney HEK293 cells were cultured in DMEM medium containing 10% FBS. Mammalian cells were transfected with Lipofectamine in accordance with the manufacturer's instructions (Invitrogen).
# For Co-immunoprecipitation (Co-IP), cells were harvested, washed with PBS, and then lysed in IP buffer (50 mMTris [pH 7.4], 150 mMNaCl, 5 mMEDTA [pH 8.0], 0.5% NP40, 1 mM PMSF, complete Protease Inhibitor Cocktail tablet [Roche]; supplemented with phosphatase inhibitors [1 mM Na3VO4, 20 mM NaF, 0.1 mM b-glycerophosphate, 20 mM sodium pyrophosphate] when necessary). For immunoblotting (IB) of phospho-specific proteins, unless stated otherwise, cells were lysed in urea buffer (100 mM NaH2PO4, 10 mM Tris-HCl, 8 M Urea, 1 mM Na3VO4, 20 mM NaF, 0.1 mM β-glycerophosphate, 20 mM sodium pyrophosphate, supplemented with complete Protease Inhibitor Cocktail tablet [Roche], pH 8.0). Lysates were then cleared by centrifugation (14,000 rpm, 10 min) and protein concentration in supernatants was determined with a BCA protein assay kit (Pierce, Rockford, Ill.). […]
substance,measurement,setting,value
H2N-SEITKQEK-D^549-FLW-S^553-HRHYC-COOH [stapled mutant peptide],AKT phosphorylation at both T308 and 5473 residues,DLD1 cells harboring p110α E545K,reduced
same,AKT phosphorylation at both T308 and 5473 residues,H460 cells harboring p110α E545K,reduced
same,AKT phosphorylation,HCT116 cells harboring p110α H1047R,no effect
same,AKT phosphorylation at both T308 and 5473 residues,MDA-MB361 cells harboring p110α E545K,reduced
same,AKT phosphorylation,RKO cells harboring p110α H1047R,no effect
same,AKT phosphorylation,T47D cells harboring p110α H1047R,no effect
same,AKT phosphorylation at both T308 and 5473 residues,Vaco481 cell line harboring p110α Q546P,reduced
same,AKT phosphorylation,WT-only DLD1 cells,did not affect
same,AKT phosphorylation,mutant-only DLD1 cells,reduced
same,AKT phosphorylation when cell lines were stimulated by insulin,"serum-starved, 1 μg/ml insulin for 30 min",no effect
same,AKT phosphorylation in cancer cells,summary statement on FIG. 4,reduced
